Results taken from ChEMBL document CHEMBL1201862, “PubChem BioAssay data set” (2004).
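Compound exposure: 48 hours, 5 concentrations, 96-well plates. GI50: concentration for 50% inhibition of growth.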 Calls of active or inactive are those of the source. No stated cut-off is given here; in the data, active = GI50 up to about 1.1 µM and inactive = higher.

Tests used:
Assay in all cases: inhibition of tumour cell growth, NCI panel, 48 h
[1] = tested on: SN12C
[2] = tested on: MOLT-4
[3] = tested on: SK-MEL-5
[4] = tested on: SNB-75
[5] = tested on: EKVX
[6] = tested on: U-251
[7] = tested on: HCT-15
[8] = tested on: OVCAR-4
[9] = tested on: SF-539
[10] = tested on: NCI-H226
[11] = tested on: OVCAR-3
[12] = tested on: CCRF-CEM
[13] = tested on: LOX IMVI
[14] = tested on: NCI-H522
[15] = tested on: SF-268
[16] = tested on: OVCAR-8
[17] = tested on: UACC-62
[18] = tested on: K562
[19] = tested on: DU-145
[20] = tested on: SF-295

SMILES	GI50 [1]	GI50 [2]	GI50 [3]	GI50 [4]	GI50 [5]	GI50 [6]	GI50 [7] [µM]	GI50 [8]	GI50 [9]	GI50 [10]	GI50 [11]	GI50 [12]	GI50 [13]	GI50 [14]	GI50 [15]	GI50 [16]	GI50 [17]	GI50 [18]	GI50 [19]	GI50 [20]
CC(C)OP(=O)(OC(C)C)/C(=N/Nc1ccc([N+](=O)[O-])cc1)Nc1ccc(N/C(=N\Nc2ccc([N+](=O)[O-])cc2)P(=O)(OC(C)C)OC(C)C)cc1	> 100 µM (inactive)	2.58 µM (inactive)	6.98 µM (inactive)	14.2 µM (inactive)	26.9 µM (inactive)	13.2 µM (inactive)	6.21	35.7 µM (inactive)	57.3 µM (inactive)	74.1 µM (inactive)	70.1 µM (inactive)	2.95 µM (inactive)	12.8 µM (inactive)	6.22 µM (inactive)	> 100 µM (inactive)	13.6 µM (inactive)	2.2 µM (inactive)	4.79 µM (inactive)		
CC1=C[C@@H]2[C@@H](CC(CO)=C[C@H]3[C@@H]4C(C)(C)[C@]4(OCC(C)C)[C@H](OCC(C)C)[C@@H](C)[C@]23O)C1=O	1.73 µM (inactive)	0.646 µM (active)	1.11 µM (active)	2.97 µM (inactive)	1.03 µM (active)	1.5 µM (inactive)	1.42	4.28 µM (inactive)	0.975 µM (active)	1.36 µM (inactive)	2.17 µM (inactive)	0.741 µM (active)	1.25 µM (inactive)	2.2 µM (inactive)	3.43 µM (inactive)	1.73 µM (inactive)	1.43 µM (inactive)	0.137 µM (active)	3.2 µM (inactive)	0.92 µM (active)
N#Cc1c(N)nc(Nc2cccc3ccccc23)c(C#N)c1C#N	3.42 µM (inactive)	3.03 µM (inactive)	4.43 µM (inactive)	3.52 µM (inactive)	> 10 µM (inactive)	4.71 µM (inactive)	4.17	> 10 µM (inactive)	2.78 µM (inactive)	> 10 µM (inactive)	2.3 µM (inactive)	2.32 µM (inactive)	2.53 µM (inactive)	2.9 µM (inactive)	3.68 µM (inactive)	5.25 µM (inactive)	4.18 µM (inactive)	2.58 µM (inactive)	> 10 µM (inactive)	3.4 µM (inactive)
COC(=O)C(NC(=O)c1ccccc1)C(c1c(O)cc(O)cc1O)P(=O)(OC)OC (stereo unspecified)	> 100 µM (inactive)	> 100 µM (inactive)	> 100 µM (inactive)	> 100 µM (inactive)	> 100 µM (inactive)	> 100 µM (inactive)	> 100	> 100 µM (inactive)	> 100 µM (inactive)	> 100 µM (inactive)		32 µM (inactive)	> 100 µM (inactive)	> 100 µM (inactive)	> 100 µM (inactive)	> 100 µM (inactive)	6.73 µM (inactive)	27.2 µM (inactive)		> 100 µM (inactive)
O=C1C[C@@H]2[C@@H](C=CC23CCCC3)N1O	> 100 µM (inactive)	> 100 µM (inactive)	> 100 µM (inactive)	> 100 µM (inactive)	> 100 µM (inactive)	> 100 µM (inactive)	> 100	> 100 µM (inactive)	> 100 µM (inactive)	> 100 µM (inactive)	> 100 µM (inactive)	> 100 µM (inactive)	> 100 µM (inactive)	> 100 µM (inactive)	> 100 µM (inactive)	> 100 µM (inactive)	> 100 µM (inactive)	> 100 µM (inactive)		> 100 µM (inactive)
O=S(=O)(N=S(c1ccccc1)c1ccccc1)c1ccccc1	> 100 µM (inactive)	> 100 µM (inactive)			> 100 µM (inactive)	> 100 µM (inactive)	> 100		> 100 µM (inactive)	> 100 µM (inactive)	> 100 µM (inactive)	> 100 µM (inactive)			> 100 µM (inactive)	> 100 µM (inactive)		> 100 µM (inactive)	> 100 µM (inactive)	> 100 µM (inactive)
NC(CCCCO)C(=O)O (stereo unspecified)			> 100 µM (inactive)	> 100 µM (inactive)	> 100 µM (inactive)	> 100 µM (inactive)	> 100	> 100 µM (inactive)		> 100 µM (inactive)	> 100 µM (inactive)	> 100 µM (inactive)	> 100 µM (inactive)	> 100 µM (inactive)	> 100 µM (inactive)	> 100 µM (inactive)	> 100 µM (inactive)	> 100 µM (inactive)	> 100 µM (inactive)	> 100 µM (inactive)
Nc1ncnc2c1cnn2Cc1ccc(Cl)cc1	> 100 µM (inactive)	> 100 µM (inactive)	> 100 µM (inactive)	48.4 µM (inactive)		> 100 µM (inactive)	> 100	> 100 µM (inactive)		> 100 µM (inactive)	> 100 µM (inactive)	> 100 µM (inactive)	> 100 µM (inactive)	92 µM (inactive)	> 100 µM (inactive)	> 100 µM (inactive)		> 100 µM (inactive)	> 100 µM (inactive)	> 100 µM (inactive)
O=C(O)c1ccccc1CN1CCCC(C(=O)O)C1 (stereo unspecified)	> 100 µM (inactive)	> 100 µM (inactive)	> 100 µM (inactive)	> 100 µM (inactive)	> 100 µM (inactive)	> 100 µM (inactive)	> 100	> 100 µM (inactive)	> 100 µM (inactive)	> 100 µM (inactive)	> 100 µM (inactive)		> 100 µM (inactive)	> 100 µM (inactive)	> 100 µM (inactive)	> 100 µM (inactive)	> 100 µM (inactive)	> 100 µM (inactive)	> 100 µM (inactive)	> 100 µM (inactive)
CCCCNC(=S)Nc1nc(C(=O)NNC(=S)NC2CCCCC2)cs1	> 100 µM (inactive)	> 10 µM (inactive)	67.6 µM (inactive)		> 100 µM (inactive)	91.4 µM (inactive)	32.7	> 100 µM (inactive)	> 100 µM (inactive)	> 100 µM (inactive)	91.8 µM (inactive)	67.6 µM (inactive)	> 100 µM (inactive)	> 100 µM (inactive)	> 100 µM (inactive)	69.3 µM (inactive)	> 100 µM (inactive)	75.5 µM (inactive)	> 100 µM (inactive)	> 100 µM (inactive)
C=C1C(=O)O[C@@H]2[C@H](O)[C@@H](C)[C@@H]3C=CC(=O)[C@@]3(C)[C@H](OC(=O)C=C(C)C)[C@H]12	0.877 µM (active)	0.345 µM (active)	1.69 µM (inactive)	1.04 µM (active)	1.74 µM (inactive)	1.49 µM (inactive)	0.242	1.98 µM (inactive)	0.255 µM (active)	2 µM (inactive)	0.895 µM (active)	0.183 µM (active)	0.457 µM (active)	0.179 µM (active)	0.916 µM (active)	0.421 µM (active)	0.625 µM (active)	0.199 µM (active)		2.8 µM (inactive)
O=S(O)CCCCCSSSCCCCCS(=O)O	53.5 µM (inactive)	4.81 µM (inactive)		24.6 µM (inactive)	> 100 µM (inactive)	54.5 µM (inactive)		52 µM (inactive)	84.3 µM (inactive)		20.2 µM (inactive)	6.59 µM (inactive)	27.1 µM (inactive)	24 µM (inactive)	26.9 µM (inactive)		22.8 µM (inactive)	14.6 µM (inactive)		
Nc1nc(=O)c2c([nH]1)NCC(CNc1ccc(C(=O)N[C@@H](CCC(=O)O)C(=O)O)cc1)N2C=O (stereo partly specified) [LEUCOVORIN CALCIUM]	14.8 µM (inactive)	> 125 µM (inactive)	> 125 µM (inactive)	> 125 µM (inactive)	> 125 µM (inactive)	> 125 µM (inactive)	> 125	> 125 µM (inactive)	> 125 µM (inactive)	81.1 µM (inactive)	> 125 µM (inactive)	39.5 µM (inactive)	> 125 µM (inactive)	> 125 µM (inactive)	> 125 µM (inactive)	121 µM (inactive)	> 125 µM (inactive)	39.5 µM (inactive)		> 125 µM (inactive)
CCCCCCCCCCCCCCCCCCOP(=O)([O-])OCC[N+](C)(C)C [OCTADECYLPHOSPHONOCHOLINE]	0.502 µM (active)	0.295 µM (active)	1.42 µM (inactive)	0.836 µM (active)	2.14 µM (inactive)	0.695 µM (active)	0.644		1.2 µM (inactive)	0.787 µM (active)	0.877 µM (active)	0.366 µM (active)	0.863 µM (active)	0.419 µM (active)	0.807 µM (active)	1.02 µM (active)	4.4 µM (inactive)	0.957 µM (active)		0.736 µM (active)
